Each molecule was assayed on HCV genotype 1a replicon cell line (assay: EC50 in HCV genotype 1a replicon cell line). Conditions: Hepatitis C virus, read-out: EC50 value for the HCV genotype 1a replicon cell line.
Type: cell-based

SMILES | EC50 [nM]
COC(=O)N[C@H](C(=O)N1CCC[C@H]1C(=O)Nc1ccc([C@@H]2CC[C@@H](c3ccc(NC(=O)[C@@H]4CCCN4C(=O)[C@@H](NC(=O)OC)C(C)C)cc3)N2c2ccc(C(C)(C)C)cc2)cc1)C(C)C [Compound 4] | 0.01
COc1c(-c2ccc3cc(NS(C)(=O)=O)ccc3c2)cc(-n2ccc(=O)[nH]c2=O)cc1C(C)(C)C [Compound 2, N-(6-(3-tert-butyl-5-(2,4-dioxo-3,4-dihydropyrimidin-1(2H)-yl)-2-methoxyphenyl)naphthalen-2-yl)methanesulfonamide] | 7.7
Cc1cnc(C(=O)N[C@H]2CCCCC/C=C\[C@@H]3C[C@@]3(C(=O)NS(=O)(=O)C3CC3)NC(=O)[C@@H]3C[C@@H](Oc4nc5ccccc5c5ccccc45)CN3C2=O)cn1 [Compound 1, (2R,6S,13aS,14aR,16aS,Z)—N-(cyclopropylsulfonyl)-6-(5-methylpyrazine-2-carboxamido)-5,16-dioxo-2-(phenanthridin-6-yloxy)-1,2,3,5,6,7,8,9,10,11,13a,14,14a,15,16,16a-hexadecahydrocyclopropa[e]pyrrolo[1,2-a][1,4]diazacyclopentadecine-14a-carboxamide] | 0.9

From patent US8685984B2, “Methods for treating HCV” (AbbVie Inc., priority 2011, dated 2014)
